Columns and labels:
Format in all cases: cell-based
sphingosine kinase = target: T1, sphingosine kinase (Mus musculus, UniProt Q8CI15); experiment: Activation of sphingosine kinase (C17-sphingosine-1-phosphate production, HPLC); settings: F9-12 cells, 24 hours, 50 μM compound, PMA 300 nM
T1 construct: host or cells: F9-12 cells
Protocol: The following test for activation of sphingosine kinase was performed to determine whether the effects of the above compounds upon intracellular calcium signal transfer as described in Example 1 were caused by activation of sphingosine kinase.
F9-12 cells were treated with 300 nM of PMA ([…]) as positive control, and 50 μM of each of K6PC4 and K6PC-5 for 24 hours and collected. Then, activity of sphingosine kinase was measured as production of C17-sphingosine-1-phosphate based on 50 μg of protein. Sphingosine-1-phospate was extracted from the collected cells by the steps of: (1) treating with trypsin-EDTA, (2) centrifugal separation at 1,500 rpm for 10 minutes, and (3) washing with PBS, followed by freeze-drying. Then, PBS was added to the freeze-dried product and the resultant product was treated with ultrasonic waves to destroy cells. Sphingosine-1-phosphate was determined by HPLC, and OPA (o-phthalaldehyde) reagent and boric acid buffer were added to the extracted sample and the mixture was reacted at room temperature for 20 minutes. For the HPLC quantitive analysis, fluorescence intensity was measured at each wavelength of 340 nm and 455 nm with a solution in 90% acetonitrile, and a ratio to the internal standard was calculated.

keratinocytes = experiment: Differentiation of keratinocytes (western blotting of involucrin and keratin-1); settings: 10 μM, 48 hours, FIG. 2
Protocol: In order to evaluate the effect of the above compound according to the present invention upon differentiation of keratinocytes, each of K6PC4, K6PC-5, K6PC-7 and K6PC-9 was dissolved in DMSO at a concentration of 10 μM and used as sample. Evaluation was performed by using the western blotting method. As differentiation markers, involucrin and keratine-1, which were differentiation markers of keratinocytes, were measured. Next, 48 hours after the treatment of samples, the culture solution was discarded and the cells were washed with PBS and collected by filtering. The collected cells were washed again and subjected to centrifugal separation to remove supernatant. The cells were dissolved in a solvent and subjected to centrifugal separation at 12,000 rpm for 10 minutes, thereby removing cell membranes, etc. Protein concentration was determined by the Bradford method. Proteins were separated by mini gel type SDS-PAGE (polyacrylamide gel electrohoresis) and transferred to a PVDF (polyvinylidene fluoride) membrane at 100V for 1 hour, so that gel-like proteins were subjected to blotting with a transfer membrane. Then, the membrane was colored with Ponceau S solution to determine whether transfer was accomplished or not. The membrane was blocked by using TTBS (TBS+0.1% Tween 20) solution containing 5% non-fat dried milk. In order to check the amount of involucrin as differentiation marker of keratinocytes, primary antibody involucrin (Neomarkers Co.) was diluted at a ratio of about 1/200 to 1.400, and keratin-1 (Covance Co.) was diluted at a ratio of about 1/1000. Reactions were performed overnight at 4° C. As secondary antibody, anti-mouse IgG and anti-rabbit IgG combined with horseradish peroxidase (HRP) was diluted at a ratio of 1:2000. Then, the secondary antibody was bonded to the primary antibody by making them react at room temperature for 1 hour. The membrane was washed with TTBS three times, reacted with an ECL substrate (Amersham Co.) for 1-3 minutes, and exposed to X-ray films.

RBL-2H3 cell line = experiment: Intracellular calcium movement (fura-2 fluorescence); settings: RBL-2H3 cells, fura-2, FIGS. 1a to 1d
Protocol: First, the following experiment for calcium movement was performed in order to determine whether the above sphingosine kinase activator compounds activate sphingosine-1-phosphate, so as to cause intracellular calcium movement, which is a typical activity specific to sphingosine-1-phosphate.
The sphingosine kinase activator compounds were determined for capability of inducing intracellular calcium movement by using a RBL-2H3 cell line, which is one of the typical cell lines showing intracellular calcium movement. The cells are cultured by using an RPMI 1640 culture medium and the cells were washed simultaneously with removal of the medium. Then, 10 μM of fura-2/Am and 250 μl M of sulfinpyrazone were added thereto, followed by incubation for 30 minutes. Cell pellets were obtained by centrifugal separation and the cell pellets were dispersed in Ca^2+-free Locke's solution. The dispersion was divided into a unit of 1×10^6 cells for use in treating samples. Next, the cells were introduced into a cuvet of a fluorescence microscope, each sphingosine kinase activator compound was added thereto, and intracellular calcium movement was observed by the fluorescence microscope (RF-5310PC, Spectrofluoro photometer, SHIMADZU). When intracellular calcium ions are detected, they cause fluorescence by bonding with fura-2. Therefore, a degree of calcium movement caused by a sample was evaluated by calculating a difference between the measurement of fura-2 ([…]) bonded with calcium and that of non-bonded fura-2 ([…]).

T1 sequence (Q8CI15 1-381 isoform Q8CI15-3): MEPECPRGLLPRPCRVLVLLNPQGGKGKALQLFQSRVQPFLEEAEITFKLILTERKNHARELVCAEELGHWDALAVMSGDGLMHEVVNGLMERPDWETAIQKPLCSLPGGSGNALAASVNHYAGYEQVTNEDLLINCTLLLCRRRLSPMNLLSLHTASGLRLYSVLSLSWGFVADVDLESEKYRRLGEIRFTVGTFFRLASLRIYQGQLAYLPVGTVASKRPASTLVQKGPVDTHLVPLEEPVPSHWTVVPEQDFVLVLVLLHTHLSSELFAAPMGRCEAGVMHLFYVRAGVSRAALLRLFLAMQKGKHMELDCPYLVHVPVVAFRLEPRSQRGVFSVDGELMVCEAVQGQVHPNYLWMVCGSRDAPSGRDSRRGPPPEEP

- C17-SIP Production (sphingosine kinase; non-treated control 51.72): 75.59 pmol/min/mg
- increase in production of sphingosine-1-phosphate (sphingosine kinase; versus non-treated control): about 46%
SMILES: CCCCCCCC(=O)C(CCCCCC)C(=O)NC(CO)CO (stereo not shown) [K6PC-5, N-(1,3-dihydroxyisopropyl)-2-hexyl-3-oxo-decanamide]
- expression of differentiation markers (involucrin, keratin-1) (keratinocytes): expressed the differentiation markers
- intracellular calcium movement (RBL-2H3 cell line): caused intracellular calcium movement

Reference: patent US20060094790A1, “Use of sphingosine kinase activator as skin disease treating agent and method for treating skin diseases using the same” (priority 2004, published 2006)
